Assay results taken from patent US4992461A, “N-azabicyclo(3.3.0)octane amides of aromatic acids, compositions, and methods of use thereof” (G. D. Searle & Co., priority 1989, dated 1991).
Where a name gives a salt, the structure may show the parent alone.

What was measured:
gastric antrum = experiment: Antral motility in conscious fasted dogs; format: in vivo, Mongrel dogs; settings: 60 min after injection relative to Phase III of MMC
Method: This contractile activity is thought to enhance gastric emptying by more rapidly reducing food particle size for passage through the pylorus.
Mongrel dogs of either sex were surgically implanted with strain gauge force transducers on the gastric antrum at 6 cm, 4 cm and 2 cm from the gastroduodenal junction. The dogs were allowed two weeks to recover and were trained to stand quietly in Pavlov slings.
Dogs were fasted for 18 to 24 hours prior to each experiment to record a pattern of antral contractile activity characteristic of the fasted state called the Migrating Motor Complex (MMC). The period of the MMC cycle is approximately 90 to 120 minutes and consists of 45 to 60 minutes of motor quiescence (Phase I) 30 to 45 minutes of intermittent activity (Phase II) and 10 to 15 minutes of intense contractile activity (Phase III). A control MMC period is recorded prior to compound administration to obtain the length of the quiescent Phase I period. Compound is given intravenously at the end of Phase III of the control MMC cycle and a subsequent Phase I period is examined for the ability of the compound to produce contractions. A response index is calculated as the mean 10 minute motility index for 60 minutes following injection of test compound divided by the 10 minute motility index obtained for the previous Phase III period of the MMC. The response index represents an estimate of the fraction of maximal antral motor activity produced by the compound.

5-HT3 = experiment: Bezold-Jarisch Reflex test (5-HT induced bradycardia in pentobarbital anesthetized mice); format: in vivo; settings: 5-HT 0.25 mg/kg i.v. induced bradycardia, 30 min
Method: 5-HT3 antagonism can be determined for a compound by subjecting the compound to a Bezold-Jarisch Reflex test which is described and reported by Saxena, P.R., and Lawang, A.; Arch. Int.
The test compound is administered i.p. (mg/kg) to a group of 3 mice. Thirty minutes later a 5-HT (0.25 mg/kg i.v.) induced bradycardia is recorded in pentobarbital anesthetized animals.

rats = experiment: Rat gastric emptying of a test meal; format: in vivo, Male Charles River Rats, Crl: COBS, CD (SD) BR Strain; settings: 30 min before test meal, 60 min after meal
Method: A test meal for measuring gastric emptying in rats was prepared. Ten grams of methylcellulose (2% solution=15 centipoises; Aldrich Chemical Company, Milwaukee, Wis.) was added to 200 ml of cold water and mixed at 20,000 rpm in a Waring blender to insure dispersion and hydration of the methylcellulose. In addition, two beef bouillon cubes (Wyler's, Columbus, Ohio) dissolved in 100 ml of warm water was added to the mixture, followed by 16 g of casein (Hammersten, Schwartz/Mann, Orangeburg, N.Y.), 8 g of powdered confectioners sugar and 8 g of cornstarch. The ingredients were mixed for two minutes at 20,000 rpm and the resultant test meal was refrigerated for 48 hours to allow trapped air to escape.
Male Charles River Rats, Crl: COBS, CD (SD) BR Strain, 180-200 g body weight, were used in groups of six animals. The animals were food deprived for 24 hours prior to the experiment with access to water ad libitum. The compounds to be evaluated were prepared in a 0.5% aqueous methylcellulose solution. If insoluble, the mixture was homogenized for two minutes at 5500 rpm using a Try-R-Stir-R. The compounds were injected intraperitoneally at a volume of 5 ml/kg, 30 minutes before the test meal, (3.0 ml/rat i.g.). Control animals received only the vehicle. Sixty minutes after the test meal, the rats were sacrificed by cervical dislocation. The stomachs were removed intact and weighed. The stomachs were kept opened, gently rinsed with tap water, blotted dry with paper towelling, and the empty stomach weighed. The difference between the weight of the full and empty stomach is indicative of the amount of meal remaining in the stomach. The amount of meal remaining in the stomach was subtracted from the weight of 3 ml of the test meal to determine the amount of food emptied from the stomach during the test. Weight of the test meal was determined by weighing three samples (3 ml) at the beginning and three samples at the end of each experiment and calculating the mean. The mean and standard error of the amount of meal emptied were calculated.

beagle dogs = experiment: Antiemetic activity against cisplatin in beagle dogs; format: in vivo; settings: cisplatin 3 mg/kg i.v., 5 hours
Method: Antiemetic activity of test compound against cisplatin was determined in beagle dogs. Dogs are pretreated I.V. with a test compound dissolved in DMSO thirty minutes before administration of cisplatin 3 mg/kg.i.v. with a second dose of compounds given i.v. two hours after cisplatin administration. Emetic episodes are counted for 5 hours following cisplatin administration.
Per cent inhibition of emesis for each animal is determined by the following formula: [formula] A mean per cent inhibition of emesis is determined for at least 4 dogs.

SMILES | RESPONSE INDEX (gastric antrum; 0.3 mg/kg iv) | RESPONSE INDEX (gastric antrum; 1.0 mg/kg iv) | RESPONSE INDEX (gastric antrum; 3.0 mg/kg iv) | % INHIBITION (5-HT3; 5.0 mg/kg ip) [%] | % INHIBITION (5-HT3; 10.0 mg/kg ip) [%] | % INCREASE IN GASTRIC EMPTYING (rats; 1.0 mg/kg ip) [%] | % INCREASE IN GASTRIC EMPTYING (rats; 3.0 mg/kg ip) [%] | % INCREASE IN GASTRIC EMPTYING (rats; 10.0 mg/kg ip) [%] | % INHIBITION OF CISPLATIN EMESIS (beagle dogs; 0.3 mg/kg iv) [%] | % INHIBITION OF CISPLATIN EMESIS (beagle dogs; 3.0 mg/kg iv) [%] | % INHIBITION (5-HT3; 2.5 mg/kg ip) [%] | RESPONSE INDEX (gastric antrum; 0.1 mg/kg iv) | % INHIBITION OF CISPLATIN EMESIS (beagle dogs; 1.0 mg/kg iv) [%] | % INHIBITION OF CISPLATIN EMESIS (beagle dogs; .005 mg/kg iv) [%] | % INHIBITION OF CISPLATIN EMESIS (beagle dogs; .05 mg/kg iv) [%]
COc1cc(N)c(Cl)cc1C(=O)NC[C@@H]1CCN2CCC[C@@H]12 (relative stereo) [Example 5, cis-4-amino-5-chloro-N-[(hexahydro-1H-pyrrolizin-1-yl)methyl]-2-methoxybenzamide,dihydrochloride] | 0.37 | 0.49 | 0.58 | 47 | 85 | 2.5 | 9.4 | 15.8 | 27.0 | 95.5 | – | – | – | – | –
COc1cc(N)c(Cl)cc1C(=O)NC[C@H]1CCN2CCC[C@@H]12 (relative stereo) [Example 7, trans-4-amino-5-chloro-N-[(hexahydro-1H-pyrrolizin-1-yl)-methyl]-2-methoxybenzamide,dihydrochloride] | – | – | 0.40 | 61 | 86 | 3.1 | 0.9 | -6.9 | – | – | 55 | – | – | – | –
COc1cc(N)c(Cl)cc1C(=O)NC1CCN(CCCOc2ccc(F)cc2)CC1OC (centres unmarked) [Cisapride, cisapride] | 0.54 | 0.41 | – | 54 | 78 | 9.8 | 15.4 | 25.0 | -2.3 | – | 49 | 0.45 | 91.0 | – | –
CN1C2CCC1CC(OC(=O)c1c[nH]c3ccccc13)C2 (centres unmarked) [ICS 205-930] | – | – | – | – | – | – | – | – | – | – | – | – | – | 60.8 | 100.0
CCN(CC)CCNC(=O)c1cc(Cl)c(N)cc1OC [Metoclopramide, metoclopramide] | – | 0.23 | 0.65 | – | 40 | 2.6 | 11.2 | 34.1 | 19.5 | 99.9 | – | – | – | – | –
